Here are results for 30 compounds from patent US20070219212A1, “Pyranouidole Derivatives and the Use Thereof for the Treatment of Hepatitis C Virus Infection or Disease” (priority 2004, published 2007).

Assay [1] has as its target T1, NS5B from the BK strain (genotype 1b) (Hepatitis C virus genotype 1b, UniProt P26663).
T1 construct: NS5B from the BK strain (genotype 1b) is expressed in E coli as a protein in which the 21 C-terminal amino acids are replaced; made in house; host or cells: E. coli
The assay is described as follows: Hepatitis C polymerase (NS5B, BK strain) inhibition, radioactive filter assay. In kind it is biochemical. To be noted: NS5B BK strain (genotype 1b). The source says: (§1) The ability of the compounds of the present invention to inhibit Hepatitis C Polymerase was established by the following experimental procedure:
NS5B from the BK strain (genotype 1b) is expressed in E coli as a protein in which the 21 C-terminal amino acids are replaced with a short linker and a hexahistidine tag ([…]). The purified protein is mixed with radioactive nucleotides and allowed to replicate a heteropolymeric RNA substrate, primed by an endogenous short hairpin, resulting in an approximately 760 nt product. The radioactive product is captured on a filter and quantitated after removal of the unincorporated nucleotides.
(§2) • 0.5M Na Phosphate buffer. Per liter, weigh 134 gr Na2HPO4.7H2O, add water to 900 ml. Adjust pH to 7.0 with phosphoric acid. Top off with water to 1 L. • Dilute nucleotides 1:1000 to 10 μM (GTP and CTP) or 1:100 to 100 μM (ATP and UTP) into RNase free water. Procedure: • (1) Compounds 10 μl at […] in 15% dimethylsulfoxide (DMSO) When starting from 100 μg/ml compound stock in 1% DMSO: Dispense 5 μl 30% DMSO per well Dispense 5 μl compound (100 μg/ml) per well. When starting from 50 μg/ml compound stock in 15% DMSO: Add 10 μl compound per well.
(§3) Add 20 μl enzyme mix into each well of the assay plate. Incubate compound and enzyme at room temperature for 15 minutes • (3) Template mix—prepare ahead
(§4) Spin down a tube of RNA (5 μg/tube stored in 75% ethanol and 0.3 M sodium acetate) in a microcentrifuge for 20 minutes at 4° C. One tube is enough for 1-1.5 plates. Remove as much ethanol from the tube as possible by inverting the tube. Be gentle, pellet RNA may not adhere to the tube. Vacuum dry the RNA. Resuspend the RNA by adding 1 ml of DEPC water, close the cap of the tube tightly. To dissolve RNA, incubate RNA solution on ice for ˜60 minutes and gently vortex. Spin briefly to ensure all RNA solution is down to the bottom of the tube before opening cap. Gently transfer RNA solution into a 5 ml or larger tube. Add another 3 ml of DEPC water (total 4 ml of volume).
(§5) Add the following volumes of reagents
(§6) Add 20 μl template mix per reaction (i.e. 20 ng of pOF per reaction or ˜3 nM) • (4) Incubate reaction at room temperature (22-25° C.) for 2 hours. • (5) Stop reaction by adding 50 μl of 170 mM EDTA.
(§7) Final concentration of EDTA is 85 mM. • (6) Prewet filters of Millipore multiscreen assay plate by adding 200 μl of 0.5 M sodium phosphate buffer, pH 7.0 into each well. Let stand at room temperature for 2-3 minutes. • (7) Place the multiscreen filter plate onto a Millipore Manifold and turn on vacuum to allow buffer to flow through. Turn off vacuum. Transfer 80 μl of the reaction product into each well of the filter plate. Let stand for 2-3 minutes. Turn on vacuum to filter reaction product. • (8) Turn off vacuum. Add 200 μl of 0.5 M sodium phosphate buffer, pH 7.0 into each well to wash filter. Turn on vacuum.
(§8) Repeat step (8) three more times. • (9) Remove polypropylene bottom. Spot dry filter at the bottom with paper towel. Air dry filter plate on a bench for 1 hour. Add 40 μl Super Mix scintillant. Seal top of the plate with a tape. Place plate into a Packard carrier or micro-beta carrier. • (10) Count plate using a Packard Topcount or micro-beta counter. Count (for example using Program 10) for ^33P in Top count or ^33P program in micro-beta.
(§9) See, Ferrari et al. 1999. J. Virology 73:1649-1654: “Characterization of soluble Hepatitis C virus RNA-dependent RNA polymerase expressed in E. coli and Takamizawa et al. 1991” and J. Virology 65:1105-1113: “Structure and characterization of the Hepatitis C virus genome isolated from human carriers,” both references are hereby incorporated by reference.

Assay [2] has as its target BB7 RNA-dependent RNA polymerase hepatitis C virus protein (Con1 HCV sequence) (Hepatitis C virus genotype 1b, UniProt Q9WMX2). The assay is described as follows: Hepatitis C polymerase (BB7) inhibition. In kind it is biochemical.
Source text: For purposes of this invention, the term “BB7” denotes an RNA-dependent RNA polymerase hepatitis C virus protein sequence which is derived from HCV replicon. A discussion of BB7 and related technology can be found in Blight, K. et al. (2000) Science 290:1972-1974. BB7 can be licensed from Apath, LLC (893 North Warson Road, Saint Louis Mo. 63141, USA). BB7 is also referred to as Con1 HCV sequence and discussions of Con1 can be found in the following references: Lohmann, V. et al. (1999) Science 285:110-113; Pietschmann, T. et al. (2001) J. Virol. […]:1252-1264; Lohmann, V. et al. (2001) J. Virol. 75:1437-1449.
as §1, §2, §3, §4, §5, §6, §7, §8, §9

[3] abbreviates: BB7 (Con1) NS5B, read-out: BB7 IC50.

Structures are written as SMILES. Where two headings read alike, the source gives them in different places. A value given as a limit tells only on which side of the number the result lay.

Sequence of BB7 RNA-dependent RNA polymerase hepatitis C virus protein (Con1 HCV sequence) (Q9WMX2 2420-3010): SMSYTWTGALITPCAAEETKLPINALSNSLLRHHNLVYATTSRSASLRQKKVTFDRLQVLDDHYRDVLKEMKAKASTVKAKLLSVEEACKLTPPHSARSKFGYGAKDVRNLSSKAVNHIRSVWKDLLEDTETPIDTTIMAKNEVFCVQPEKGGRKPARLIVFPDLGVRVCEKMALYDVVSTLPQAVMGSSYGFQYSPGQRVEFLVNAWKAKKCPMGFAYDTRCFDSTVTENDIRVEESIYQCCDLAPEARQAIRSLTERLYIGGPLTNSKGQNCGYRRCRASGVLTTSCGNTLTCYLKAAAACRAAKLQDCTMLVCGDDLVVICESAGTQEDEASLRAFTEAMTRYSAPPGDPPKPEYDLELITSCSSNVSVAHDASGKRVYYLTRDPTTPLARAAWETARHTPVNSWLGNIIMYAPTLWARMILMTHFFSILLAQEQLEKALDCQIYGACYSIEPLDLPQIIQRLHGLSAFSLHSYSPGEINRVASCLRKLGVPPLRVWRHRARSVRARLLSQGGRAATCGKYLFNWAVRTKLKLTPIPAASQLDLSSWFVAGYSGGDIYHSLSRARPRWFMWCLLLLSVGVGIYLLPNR
T1 sequence (P26663 2420-2989): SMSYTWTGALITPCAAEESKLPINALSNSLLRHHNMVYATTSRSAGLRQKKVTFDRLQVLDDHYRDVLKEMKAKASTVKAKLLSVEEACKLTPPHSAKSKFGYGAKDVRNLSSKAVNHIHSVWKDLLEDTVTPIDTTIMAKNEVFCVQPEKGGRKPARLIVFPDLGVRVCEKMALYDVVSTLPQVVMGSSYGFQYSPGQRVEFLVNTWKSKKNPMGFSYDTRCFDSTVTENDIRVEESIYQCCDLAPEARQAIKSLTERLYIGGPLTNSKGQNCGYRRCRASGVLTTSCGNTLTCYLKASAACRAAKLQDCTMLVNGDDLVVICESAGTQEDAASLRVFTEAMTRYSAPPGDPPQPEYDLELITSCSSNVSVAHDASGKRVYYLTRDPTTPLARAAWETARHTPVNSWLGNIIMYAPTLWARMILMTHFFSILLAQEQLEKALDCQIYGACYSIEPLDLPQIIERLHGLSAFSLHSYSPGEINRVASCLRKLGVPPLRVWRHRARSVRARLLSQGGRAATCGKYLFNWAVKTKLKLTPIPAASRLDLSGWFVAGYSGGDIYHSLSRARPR

In general, IC50 refers to the concentration that gives 50% inhibition. For the compound `CCCC1(CC(=O)O)OCCc2c1[nH]c1c(C)c(CO)cc(C#N)c21` (stereo not drawn) [Example 1, (5-Cyano-7-hydroxymethyl-8-methyl-1-propyl-1,3,4,9-tetrahydro-pyrano[3,4-b]indol-1-yl)-acetic acid], the half-inhibitory concentration (IC50) in assay [1] and in assay [2] was below 0.5 µM each time.

Take `CCCC1(CC(=O)O)OCCc2c1[nH]c1c(C)c(COCc3ccsc3)cc(C#N)c21` (stereo not drawn) [Example 18, [5-Cyano-8-methyl-1-propyl-7-(thiophen-3-ylmethoxymethyl)-1,3,4,9-tetrahydro-pyrano[3,4-b]indol-1-yl]-acetic acid]: the half-maximal inhibitory concentration (IC50) in assay [1] was 0.5 to 5 µM; in assay [2], below 0.5 µM.

Consider `CCCC1(CC(=O)O)OCCc2c1[nH]c1c(C)c(COC(C)C)cc(C#N)c21` (stereo not drawn) [Example 5, (5-Cyano-7-isopropoxymethyl-8-methyl-1-propyl-1,3,4,9-tetrahydro-pyrano[3,4-b]indol-1-yl)-acetic acid], for which the half-inhibitory concentration (IC50) is 0.5 to 5 µM in assay [1] and below 0.5 µM in assay [2].

As to `CCCC1(CC(=O)O)OCCc2c1[nH]c1c(C)c(OCc3ccnc(N)c3)cc(C#N)c21` (stereo not drawn) [Example 54], the half-inhibitory concentration (IC50) in assay [1] and in assay [2] was below 0.5 µM throughout.

Take `CCC[C@@]1(CC(=O)O)OCCc2c1[nH]c1c(C)c(O)cc(C#N)c21` [Example 47]: the IC50 in assay [1] was above 5 µM; in assay [2] it was 0.5 to 5 µM.

Regarding `CCCC1(CC(=O)O)OCCc2c1[nH]c1c(C)c(OCc3nnc(C)s3)cc(C#N)c21` (stereo not drawn) [Example 133], the IC50 in assay [1] and in assay [2] was below 0.5 µM each time.

With `CCCC1(CC(=O)O)OCCc2c1[nH]c1c(C)c(OCc3nsc(OCC)n3)cc(C#N)c21` (stereo not drawn) [Example 134], the IC50 in assay [1] and in assay [2] (setting [3]) was below 0.5 µM in each case.

As for `CCCC1(CC(=O)O)OCCc2c1[nH]c1c(C)c(OCc3ccnc(C)c3)cc(C#N)c21` (stereo not drawn) [Example 52], the IC50 in assay [1] and in assay [2] was below 0.5 µM in each case.

In the case of `CCCC1(CC(=O)O)OCCc2c1[nH]c1c(C)c(OCc3ccc(N)nc3)cc(C#N)c21` (stereo not drawn) [Example 69], the IC50 in assay [1] and in assay [2] was below 0.5 µM throughout.

For the compound `CC[C@H](C)C1(CC(=O)O)OCCc2c1[nH]c1c(C)c(OCCOC(C)C)cc(C#N)c21` (mixture of isomers) [Example 34, (1R*,10S)-[1-sec-Butyl-5-cyano-7-(2-isopropoxy-ethoxy)-8-methyl-1,3,4,9-tetrahydro-pyrano[3,4-b]indol-1-yl]-acetic acid], the IC50 in assay [1] and in assay [2] was below 0.5 µM in each case.

`CCCC1(CC(=O)O)OCCc2c1[nH]c1c(C)c(OCCOCC3CC3)cc(C#N)c21` (stereo not drawn) [Example 120]: the 50% inhibitory concentration (IC50) in assay [1] and in assay [2] (setting [3]) was below 0.5 µM throughout.

Consider `CCCC1(CC(=O)O)OCCc2c1[nH]c1c(C)c(OCC3CCOCC3)cc(C#N)c21` (stereo not drawn) [Example 108], for which the IC50 in assay [1] and in assay [2] (setting [3]) was below 0.5 µM throughout.

With `CCCC1(CC(=O)O)OCCc2c1[nH]c1c(C)c(OCc3cccc(C)n3)cc(C#N)c21` (stereo not drawn) [Example 63], the IC50 in assay [1] and in assay [2] (setting [3]) was below 0.5 µM throughout.

For `CC[C@H](C)C1(CC(=O)O)OCCc2c1[nH]c1c(C)c(OCc3nsc(N(C)C)n3)cc(C#N)c21` (mixture of isomers) [Example 35, (1R*,10S)-[1-sec-Butyl-5-cyano-7-(5-dimethylamino-[1,2,4]thiadiazol-3-ylmethoxy)-8-methyl-1,3,4,9-tetrahydro-pyrano[3,4-b]indol-1-yl]-acetic acid], the half-maximal inhibitory concentration (IC50) in assay [1] and in assay [2] was below 0.5 µM each time.

In the case of `CCCC1(CC(=O)O)OCCc2c1[nH]c1c(C)c(OCc3nnnn3C)cc(C#N)c21` (stereo not drawn) [Example 116], the IC50 in assay [1] and in assay [2] was below 0.5 µM each time.

For `CCCC1(CC(=O)O)OCCc2c1[nH]c1c(C)c(OCc3ccnc(NS(C)(=O)=O)c3)cc(C#N)c21` (stereo not drawn) [Example 96], the IC50 in assay [1] and in assay [2] was below 0.5 µM each time.

For `CCC[C@]1(CC(=O)O)OCCc2c1[nH]c1c(C)c(OCc3ccnc(C)c3)cc(C#N)c21` [Example 53], the IC50 in assay [1] and in assay [2] was below 0.5 µM throughout.

With `CCCC1(CC(=O)O)OCCc2c1[nH]c1c(C)c(OCCOC)cc(C#N)c21` (stereo not drawn) [Example 43], the IC50 in assay [1] and in assay [2] was below 0.5 µM in each case.

For the compound `CCCC1(CC(=O)O)OCCc2c1[nH]c1c(C)c(O[C@@H]3CCNC3)cc(C#N)c21` (stereo partly drawn) [Example 42], the results for the concentration for half-maximal inhibition (IC50) in assay [1] and in assay [2] were below 0.5 µM and 0.5 to 5 µM, respectively.

Turning to `CCCC1(CC(=O)O)OCCc2c1[nH]c1c(C)c(OCc3nn(C)cc3Cl)cc(C#N)c21` (stereo not drawn) [Example 75], the IC50 in assay [1] and in assay [2] was below 0.5 µM each time.

With `CCC(C)C1(CC(=O)O)OCCc2c1[nH]c1c(C)c(OCc3cc(C)n(C)n3)cc(C#N)c21` [Example 36, (1R*,10S)-[1-sec-Butyl-5-cyano-7-(1,5-dimethyl-1H-pyrazol-3-ylmethoxy)-8-methyl-1,3,4,9-tetrahydro-pyrano[3,4-b]indol-1-yl]-acetic acid], the 50% inhibitory concentration (IC50) in assay [1] and in assay [2] was below 0.5 µM each time.

With `CCC[C@]1(CC(=O)O)OCCc2c1[nH]c1c(C)c(OCc3cc(C)on3)cc(C#N)c21` [Example 23, (R)-[5-Cyano-8-methyl-7-(5-methyl-isoxazol-3-ylmethoxy)-1-propyl-1,3,4,9-tetrahydro-pyrano[3,4-b]indol-1-yl]-acetic acid], the half-inhibitory concentration (IC50) in assay [1] and in assay [2] was below 0.5 µM in each case.

As to `CCCC1(CC(=O)O)OCCc2c1[nH]c1c(C)c(OCc3cccnc3C)cc(C#N)c21` (stereo not drawn) [Example 62], the half-inhibitory concentration (IC50) in assay [1] and in assay [2] (setting [3]) was below 0.5 µM in each case.

On to `CCCC1(CC(=O)O)OCCc2c1[nH]c1c(C)c(OCCCOC)cc(C#N)c21` (stereo not drawn) [Example 119], for which the IC50 in assay [1] and in assay [2] was below 0.5 µM each time.

With `CCCC1(CC(=O)O)OCCc2c1[nH]c1c(C)c(OCC3CN(S(C)(=O)=O)C3)cc(C#N)c21` (stereo not drawn) [Example 123], the half-inhibitory concentration (IC50) in assay [1] and in assay [2] was below 0.5 µM in each case.

On to `CCCC1(C(=O)O)OCCc2c1[nH]c1c(C)c(OCc3ccncc3)cc(C#N)c21` (stereo not drawn) [Example 37], for which the IC50 in assay [1] and in assay [2] was below 0.5 µM each time.

Take `CCCC1(CC(=O)O)OCCc2c1[nH]c1c(C)c(OCc3cc(C(F)(F)F)n(C)n3)cc(C#N)c21` (stereo not drawn) [Example 126]: the half-maximal inhibitory concentration (IC50) in assay [1] and in assay [2] was below 0.5 µM in each case.

In the case of `CCCC1(CC(=O)O)OCCc2c1[nH]c1c(C)c(OCc3cc(C)nn3C)cc(C#N)c21` (stereo not drawn) [Example 66], the IC50 in assay [1] and in assay [2] was below 0.5 µM in each case.

As for `CCCC1(CC(=O)O)OCCc2c1[nH]c1c(C)c(OCc3cc(C)nc(C)c3)cc(C#N)c21` (stereo not drawn) [Example 109], the IC50 in assay [1] and in assay [2] (setting [3]) was below 0.5 µM throughout.

As to `CCCC1(CC(=O)O)OCCc2c1[nH]c1c(C)c(OCc3nccn3C)cc(C#N)c21` (stereo not drawn) [Example 110], the IC50 in assay [1] and in assay [2] was below 0.5 µM in each case.
